Results reported in US20250179589A1, “SYNTHETIC LETHALITY AND THE TREATMENT OF CANCER” (PACYLEX PHARMACEUTICALS INC., priority 2012, published 2025).

How the values were obtained:
[1] = Mouse IV pharmacokinetics; type: in vivo; conditions: whole blood, [ ] = range
[2] = target: CYP450 2C19 (Homo sapiens, UniProt P33261); assay: CYP450 inhibition; type: in vitro ADME; conditions: 2C19, at 1 uM
[3] = tested on: BL-2 (Burkitt's lymphoma) cells; assay: Trypan blue exclusion cell viability assay; type: cell-based, human
Protocol: (§1) Cell viability assay. B and T cell viability was measured using the trypan blue exclusion method. Cells were grown in confluency conditions (2×10^6 cells/mL maximum) assuring the minimum basal apoptosis. […] Cell viability was quantified using the TC10™ automated cell counter (Biorad).
(§2) The drugs were dissolved in DMSO to make 100× stock solutions for each concentration tested, so that the final volume of DMSO in each well was 1%.
(§3) Cell viability was then quantified using the TC10™ automated cell counter (Biorad).

[4] = tested on: Ramos (Burkitt's lymphoma) cells; assay: Trypan blue exclusion cell viability assay; type: cell-based, human; conditions: Homo sapiens, 72 h
Protocol: as §1, §2, §3

[5] = Caco-2 permeability Papp; type: in vitro ADME; conditions: human
[6] = target: hERG (Homo sapiens, UniProt Q12809); assay: hERG (patch clamp); type: cell-based
Sequence of hERG (Q12809 whole entry): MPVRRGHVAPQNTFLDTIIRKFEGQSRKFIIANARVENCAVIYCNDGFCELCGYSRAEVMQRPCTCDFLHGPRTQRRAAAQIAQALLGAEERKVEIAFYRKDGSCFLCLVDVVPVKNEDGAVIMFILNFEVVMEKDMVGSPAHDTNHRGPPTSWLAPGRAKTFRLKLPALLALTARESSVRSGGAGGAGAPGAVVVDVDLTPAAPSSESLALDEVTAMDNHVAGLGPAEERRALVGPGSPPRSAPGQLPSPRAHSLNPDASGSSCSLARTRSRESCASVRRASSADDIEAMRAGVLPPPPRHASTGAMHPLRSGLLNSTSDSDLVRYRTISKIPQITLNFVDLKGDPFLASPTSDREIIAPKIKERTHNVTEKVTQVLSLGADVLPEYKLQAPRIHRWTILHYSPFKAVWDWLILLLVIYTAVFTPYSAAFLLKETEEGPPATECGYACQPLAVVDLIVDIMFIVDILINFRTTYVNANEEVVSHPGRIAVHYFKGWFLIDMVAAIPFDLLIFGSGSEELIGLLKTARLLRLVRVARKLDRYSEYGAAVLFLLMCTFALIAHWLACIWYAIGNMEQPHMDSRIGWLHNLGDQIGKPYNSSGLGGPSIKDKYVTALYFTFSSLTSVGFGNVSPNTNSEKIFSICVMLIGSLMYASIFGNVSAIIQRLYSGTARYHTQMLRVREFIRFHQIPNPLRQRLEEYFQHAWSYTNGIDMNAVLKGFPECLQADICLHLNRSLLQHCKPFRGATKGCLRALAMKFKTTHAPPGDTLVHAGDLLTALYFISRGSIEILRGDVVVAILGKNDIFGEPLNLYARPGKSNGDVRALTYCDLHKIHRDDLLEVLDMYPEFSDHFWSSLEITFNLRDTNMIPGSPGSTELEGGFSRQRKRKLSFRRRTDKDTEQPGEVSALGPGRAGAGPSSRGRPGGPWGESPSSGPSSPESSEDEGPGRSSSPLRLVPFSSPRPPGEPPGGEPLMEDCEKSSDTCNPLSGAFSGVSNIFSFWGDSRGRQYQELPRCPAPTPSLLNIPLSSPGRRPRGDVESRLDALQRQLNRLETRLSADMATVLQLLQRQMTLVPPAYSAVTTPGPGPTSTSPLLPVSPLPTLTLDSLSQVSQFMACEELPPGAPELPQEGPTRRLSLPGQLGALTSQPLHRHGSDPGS

[7] = Intrinsic clearance Cli, rat; type: in vitro ADME
[8] = Fu plasma, human; type: in vitro ADME
[9] = tested on: IM-9 ("normal" EBV immortalized B cell); assay: Trypan blue exclusion cell viability assay; type: cell-based; conditions: Homo sapiens, IM-9 cells, 72 h
Protocol: as §1
(§4) […]. The drugs were dissolved in DMSO to make 100× stock solutions for each concentration tested, so that the final volume of DMSO in each well was 1%. The viability of cells treated with these inhibitors was measured with a trypan blue exclusion assay (Hudson, 1976).
as §3

[10] = tested on: KMH2 (Hodgkin's lymphoma) cells; assay: Trypan blue exclusion cell viability assay; type: cell-based; conditions: Homo sapiens, KM-H2, 72 h
Protocol: as §1, §4, §3

[11] = Fu Brain; type: in vitro ADME
[12] = target: T1, Pgp (Homo sapiens, UniProt P08183); assay: Pgp efflux, Caco-2; type: in vitro ADME
T1 construct: endogenous in cells; host or cells: Caco-2
T1 sequence (P08183 whole entry): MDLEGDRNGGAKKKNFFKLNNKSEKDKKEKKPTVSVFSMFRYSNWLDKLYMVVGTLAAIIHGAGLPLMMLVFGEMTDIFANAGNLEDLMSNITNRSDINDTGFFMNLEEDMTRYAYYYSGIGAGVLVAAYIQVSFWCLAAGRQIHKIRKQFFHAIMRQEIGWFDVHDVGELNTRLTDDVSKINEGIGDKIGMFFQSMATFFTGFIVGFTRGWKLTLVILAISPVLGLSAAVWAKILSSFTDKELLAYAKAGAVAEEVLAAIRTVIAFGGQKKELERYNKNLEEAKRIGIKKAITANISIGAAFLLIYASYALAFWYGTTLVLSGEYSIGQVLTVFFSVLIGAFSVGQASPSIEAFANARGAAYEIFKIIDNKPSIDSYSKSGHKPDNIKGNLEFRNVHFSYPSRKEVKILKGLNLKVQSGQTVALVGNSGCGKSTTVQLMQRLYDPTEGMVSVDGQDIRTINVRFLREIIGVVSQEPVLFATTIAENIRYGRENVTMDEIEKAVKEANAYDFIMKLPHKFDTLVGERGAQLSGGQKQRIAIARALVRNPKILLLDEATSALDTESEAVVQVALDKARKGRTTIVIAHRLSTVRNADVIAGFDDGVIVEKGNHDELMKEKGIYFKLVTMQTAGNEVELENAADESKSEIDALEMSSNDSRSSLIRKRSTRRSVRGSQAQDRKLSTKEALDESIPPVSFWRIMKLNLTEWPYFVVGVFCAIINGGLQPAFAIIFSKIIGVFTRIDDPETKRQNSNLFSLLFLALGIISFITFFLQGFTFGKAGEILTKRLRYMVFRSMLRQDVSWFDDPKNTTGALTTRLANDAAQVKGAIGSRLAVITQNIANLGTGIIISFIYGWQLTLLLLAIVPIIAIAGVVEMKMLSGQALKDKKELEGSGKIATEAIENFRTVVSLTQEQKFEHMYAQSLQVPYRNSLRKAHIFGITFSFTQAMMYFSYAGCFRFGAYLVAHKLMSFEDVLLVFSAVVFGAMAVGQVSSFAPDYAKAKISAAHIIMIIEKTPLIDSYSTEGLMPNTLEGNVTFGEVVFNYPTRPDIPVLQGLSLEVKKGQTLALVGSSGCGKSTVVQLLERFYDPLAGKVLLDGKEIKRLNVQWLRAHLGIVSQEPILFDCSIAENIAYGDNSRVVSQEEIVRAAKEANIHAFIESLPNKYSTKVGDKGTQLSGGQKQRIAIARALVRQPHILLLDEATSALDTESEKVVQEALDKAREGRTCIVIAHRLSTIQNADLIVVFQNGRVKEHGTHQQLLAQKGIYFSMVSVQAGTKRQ

[13] = Intrinsic clearance Cli, mouse; type: in vitro ADME
[14] = Mouse PO pharmacokinetics 10 mg/kg; conditions: in vivo, PO 10 mg/kg, [ ] = range
[15] = Intrinsic clearance Cli, human; type: in vitro ADME

Sequence of CYP450 2C19 (P33261 whole entry): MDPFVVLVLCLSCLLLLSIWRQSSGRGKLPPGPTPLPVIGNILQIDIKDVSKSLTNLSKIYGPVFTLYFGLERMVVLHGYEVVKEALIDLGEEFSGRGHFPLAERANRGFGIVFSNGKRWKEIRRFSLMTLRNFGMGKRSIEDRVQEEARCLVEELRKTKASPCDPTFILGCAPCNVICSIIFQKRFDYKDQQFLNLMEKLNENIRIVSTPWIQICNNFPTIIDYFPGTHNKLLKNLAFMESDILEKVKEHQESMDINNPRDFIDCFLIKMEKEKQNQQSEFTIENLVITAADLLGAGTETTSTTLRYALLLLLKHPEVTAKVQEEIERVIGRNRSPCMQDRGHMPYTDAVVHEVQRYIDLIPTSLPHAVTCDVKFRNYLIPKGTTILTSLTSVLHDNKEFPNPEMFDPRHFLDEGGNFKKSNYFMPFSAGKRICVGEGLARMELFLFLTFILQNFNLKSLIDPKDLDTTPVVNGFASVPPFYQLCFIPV

SMILES: Cc1nn(C)c(C)c1NS(=O)(=O)c1c(Cl)cc(-c2ccnc(N3CCNCC3)c2)cc1Cl [DDD85646]
- half-life [1]: 78 min
- Vd ([1]; read-out: Vss): 0.6 L/kg
- CYP450 inhibition [2]: 2C19 (19% at 1 uM)
- times more sensitive than cells expressing both NMTs ([3]; BL-2 and Ramos vs immortalized "normal" B cells or KMH2, trypan blue): 15-72 times
- EC50 ([3]; Homo sapiens, BL2, 72 h): 0.43 µM
- EC50 [4]: 0.37 µM
- Papp A→B [5]: 4.3 ×10⁻⁶ cm/s
- hERG (patch clamp) [6]: 27.7
- Cli Rat [7]: 0.5 mL/min/g
- fraction unbound [8]: 0.176
- EC50 [9]: 7.08 µM
- EC50 [10]: 29.6 µM
- fraction unbound [11]: 0.068
- Pgp [12]: YES (Efflux ratio =
- Cli Mouse [13]: 0.6 mL/min/g
- Cmax [14]: 2690 ng/mL
- Tmax [14]: 15 min
- Cli Human [15]: 1.2 mL/min/g
